Source: PubChem BioAssay AID1645867 (Buhrlage Lab, Dana-Farber Cancer Institute and Novartis …, 2021)
Activity calls are given as the source filed them. The rule behind the calls is not given here. Numbered stars: 1 amine (or outer) side, 2 acyl side, 3 side chain; on linkers, the order of the positions; unused ones are H or OH. Square brackets hold non-standard residues; d marks the D form. Peptide text beside a SMILES is read from it. ξ: configuration not given here. ξβ3hGly(undecyl) = CCCCCCCCCCCC(CC(=O)[*:2])N[*:1]

Target: Ubiquitin carboxyl-terminal hydrolase isozyme L1 (Homo sapiens) (UniProt P09936)
Test: biochemical concentration-response of UCH-L1 DUB inhibitors, hit verification (AID 1645867)
Settings: recombinant UCHL1 deubiquitinase activity assay

Ubiquitin carboxyl-terminal hydrolase isozyme L1 (Homo sapiens), sequence (P09936 whole entry, looked up): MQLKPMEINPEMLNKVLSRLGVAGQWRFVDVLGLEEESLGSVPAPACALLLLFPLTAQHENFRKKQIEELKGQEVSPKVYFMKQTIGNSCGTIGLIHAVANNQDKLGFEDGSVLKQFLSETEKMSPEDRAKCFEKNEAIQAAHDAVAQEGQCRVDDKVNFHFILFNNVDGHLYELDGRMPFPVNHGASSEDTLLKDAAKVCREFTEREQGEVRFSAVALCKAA

| SMILES | IC50 |
| --- | --- |
| Cc1ccc2nc(CCc3ccc(NS(=O)(=O)c4ccc(F)c(Cl)c4)cc3)[nH]c2c1 | > 25 µM (inactive) |
| Cc1ccc2[nH]c(=O)c(-c3nc4ccc(C)cn4c3NCc3ccc(F)cc3)cc2c1 | > 25 µM (inactive) |
| CCc1ccc(S(=O)(=O)c2cn(CC(=O)Nc3ccccc3)c3ccccc3c2=O)cc1 | > 25 µM (inactive) |
| Cc1ccc(C)c(Cn2cnc3c(nnn3-c3cccc(F)c3)c2=O)c1 | > 25 µM (inactive) |
| COc1cc(NC(=O)Cn2cc(C(=O)c3ccccc3)c(=O)c3cc(Cl)ccc32)cc(OC)c1 | > 25 µM (inactive) |
| O=C(CCCCn1c(=O)[nH]c2ccccc2c1=O)Nc1cccc(Cl)c1 | > 25 µM (inactive) |
| Fc1ccc(NCc2nc3ccccc3n2Cc2ccccc2)cc1 | > 25 µM (inactive) |
| COc1ccc(OC)c(-c2cn3ccn(-c4ccc(F)c(Cl)c4)c(=O)c3n2)c1 | > 25 µM (inactive) |
| c1ccc(-n2nnc(-c3noc(-c4ccc[nH]4)n3)c2-c2ccncc2)cc1 | > 25 µM (inactive) |
| COc1ccccc1N/C=C/c1onc(-c2c(F)cccc2Cl)c1C#N | > 25 µM (inactive) |
| CC(C)c1ccc(C2CC(=O)c3cn[nH]c3C2)cc1 (stereo not drawn) | > 25 µM (inactive) |
| COc1ccc(Cl)cc1NC(=O)CSc1ncnc2nc[nH]c12 | > 25 µM (inactive) |
| O=C(Nc1ccc2c(c1)OCO2)c1cncc(NS(=O)(=O)c2ccccc2)c1 | > 25 µM (inactive) |
| Cc1cc(C)c(NC(=O)Cn2c(=O)n(CCC(=O)NCc3ccc4c(c3)OCO4)c(=O)c3sccc32)c(C)c1 | > 25 µM (inactive) |
| O=C1[C@H]2Cc3c([nH]c4ccccc34)CN2C(=O)CN1Cc1ccc(F)cc1 | > 25 µM (inactive) |
| CCOc1cccc(-c2noc(-c3nn(-c4ccccc4)ccc3=O)n2)c1 | > 25 µM (inactive) |
| Fc1ccc(Nc2nc(CN3CCOCC3)nc3sc4c(c23)CCC4)cc1Cl | > 25 µM (inactive) |
| Cc1cccc(-c2nc(NC(=O)COc3ccc(F)cc3)no2)c1 | > 25 µM (inactive) |
| Cc1ccc(Cn2nc(C)c(C(=O)N3CCCc4cc(C)ccc43)c2C)cc1 | > 25 µM (inactive) |
| O=C(CSc1nnc(C2CC2)n1-c1ccccc1)c1ccc(F)c(F)c1 | > 25 µM (inactive) |
| Cc1nc(C2(NC(=O)Nc3ccc(F)cc3F)CCCC2)no1 | > 25 µM (inactive) |
| N#Cc1ccc(COC(=O)C(O)(c2ccccc2)c2ccccc2)cc1 | > 25 µM (inactive) |
| O=c1[nH]c(=O)n(Cc2ccccc2)c2c1CN(CCc1ccccc1)CN2 | > 25 µM (inactive) |

| SMILES | IC50 |
| --- | --- |
| O=C(Nc1ccc(C(F)(F)F)cc1)C1CC(=O)N(c2ccc3c(c2)OCCO3)C1 (stereo not drawn) | > 25 µM (inactive) |
| O=C1CC(c2ccco2)Cc2[nH]c(=O)c(-c3nc(-c4ccc(Cl)cc4)cs3)cc21 (stereo not drawn) | > 25 µM (inactive) |
| O=C(CSc1cn(Cc2ccccc2Cl)c2ccccc12)N1CCOCC1 | > 25 µM (inactive) |
| Cc1nc(S(=O)(=O)NC[C@@]23CCC[C@H]2N(C)C(=O)CC3)cn1C | > 25 µM (inactive) |
| Cc1nn(-c2ccc(F)cc2)c(C)c1S(=O)(=O)N1CCN(c2ccccn2)CC1 | > 25 µM (inactive) |
| CC[C@@H]1[C@@H](C)O[C@@](O)([C@@H](C)[C@H](O)[C@H](C)[C@H]2OC(=O)/C=C/C=C/[C@H](C)[C@@H]([C@@H](C)[C@@H](O)[C@H](C)[C@@]3(O)C[C@@H](O[C@H]4C[C@H](O)[C@H](O)[C@H](C)O4)[C@H](CC)[C@@H](C)O3)OC(=O)/C=C/C=C/[C@@H]2C)C[C@H]1O[C@H]1C[C@H](O)[C@H](O)[C@H](C)O1 | > 25 µM (inactive) |
| COc1ccc(C(=O)Nc2nnc(S(=O)(=O)N3CCCc4ccccc43)s2)cc1OC | > 25 µM (inactive) |
| COc1ccc(C)cc1NC(=O)COc1ncnc2ccccc12 | > 25 µM (inactive) |
| O=C(O)C1C(C(=O)Nc2ccccc2)C2(c3ccccc3)C(=O)C1(c1ccccc1)C(c1ccccc1)=C2c1ccccc1 (stereo not drawn) | > 25 µM (inactive) |
| O=C(NCc1ccc(Br)cc1)c1cc(-c2cccnc2)n[nH]1 | > 25 µM (inactive) |
| Cn1c2ccccc2c(=O)c2c(=O)n(-c3cccc(Cl)c3)c(-c3cccs3)nc21 | > 25 µM (inactive) |
| O=C(c1ccc(Cl)cc1)N(c1ccccn1)C1CCCCC1 | > 25 µM (inactive) |
| Cc1ccc(C2CN3C(=O)CN(C4CC4)C(=O)[C@]3(C)c3[nH]c4ccccc4c32)cc1 (stereo partly drawn) | > 25 µM (inactive) |
| O=C(NC1(O)C(=O)c2ccccc2C1=O)c1cccc2c1-c1ccccc1C2=O | 15.6 µM |
| Cc1ccc(N2CC(c3nc4ccccc4n3CCOc3cccc(C)c3)CC2=O)cc1 (stereo not drawn) | > 25 µM (inactive) |
| COc1ccc(NC(=O)Cn2c(C)cc(=O)n3nc(-c4cccc(C)c4)nc23)cc1 | > 25 µM (inactive) |
| COc1cc(NC(=O)c2ccc3c(c2)OCO3)ccc1-c1cc2ccccc2oc1=O | > 25 µM (inactive) |
| COc1ccc(NC(=O)[C@H](C)NC(=O)c2cc3c(OC)cccc3[nH]2)cc1Cl | > 25 µM (inactive) |
| O=C(Nc1cccc(Br)c1)c1cc(-c2cccnc2)n[nH]1 | > 25 µM (inactive) |
| O=C(c1ccccc1F)c1cc(Cl)ccc1NC(=O)C1CCCO1 (stereo not drawn) | > 25 µM (inactive) |
| O=[N+]([O-])c1ccc(C(O)CN2CCN(Cc3ccccc3)CC2)cc1 (stereo not drawn) | > 25 µM (inactive) |
| CC(c1ccccc1)N1CC(O)=C(c2nc3ccccc3s2)C1=N (stereo not drawn) | > 25 µM (inactive) |
| CCCCCC(O)c1c(O)cc2c(c1O)C(=O)c1c(O)cc(O)cc1C2=O (stereo not drawn) | > 25 µM (inactive) |

| SMILES | IC50 |
| --- | --- |
| O=C(c1cccc2ncccc12)N1CCN(c2ccnc3cc(Cl)ccc23)CC1 | > 25 µM (inactive) |
| CCOc1ccc(NS(=O)(=O)c2ccc(NC(=O)Nc3ccccc3)cc2)cc1 | > 25 µM (inactive) |
| COc1ccc(-c2cc3nc([C@H](C)NC(=O)COc4ccccc4F)nn3cn2)cc1 | > 25 µM (inactive) |
| Cc1ccc(Cn2c(=O)c(C#N)c3n(c2=O)CCC3)cc1 | > 25 µM (inactive) |
| O=C(Nc1ccc(NC(=O)c2ccccc2O)cc1)Nc1ccc(OCc2ccccc2)cc1 | > 25 µM (inactive) |
| CCOc1ccc(-c2ccc3nnc(SCC(=O)Nc4ccc(F)cc4)n3n2)cc1 | > 25 µM (inactive) |
| O=c1[nH]oc(O)c1-c1ncc(C(F)(F)F)cc1Cl | > 25 µM (inactive) |
| CN(C)CCN1C(=O)c2cc3occc3n2CC1(C)C(=O)NC1CCCCCC1 (stereo not drawn) | > 25 µM (inactive) |
| Cc1ccc(C2SCC(=O)Nc3c2c(=O)[nH]n3C2CCCCC2)cc1 (stereo not drawn) | > 25 µM (inactive) |
| O=C1C=C(O)c2c(O)cccc2C1=O | > 25 µM (inactive) |
| CCOc1ccc(C2/C(=C(\O)c3ccccc3)C(=O)C(=O)N2c2nc3ccc(F)cc3s2)cc1 (stereo not drawn) | > 25 µM (inactive) |
| O=C(Cn1c(=O)n(Cc2ccccc2)c(=O)c2ncccc21)NCc1ccccc1Cl | > 25 µM (inactive) |
| O=C(CCCn1c(=O)c2ccccc2n(CC(=O)NCc2ccccc2Cl)c1=O)NCc1ccc2c(c1)OCO2 | > 25 µM (inactive) |
| N=C1/C(=C/c2cn(Cc3ccccc3F)c3ccccc23)C(=O)N=C2SC(C(F)(F)F)=NN12 | > 25 µM (inactive) |
| CCCCCCCCCCCC1CC(=O)NC(CC(N)=O)C(=O)NC(Cc2ccc(O)cc2)C(=O)NC(CC(N)=O)C(=O)NC(CCC(N)=O)C(=O)N2CCCC2C(=O)NC(CC(N)=O)C(=O)NC(CO)C(=O)N1 (stereo not drawn) (cyclo([ξβ3hGly(undecyl)]NYNQPNS); configuration not given here) | > 25 µM (inactive) |
| CC1O[C@@H](c2ccc3c(c2O)C(=O)C2=C(C3=O)[C@@]3(O)C(=O)C(O)[C@](C)(O)C[C@@]3(O)C=C2)CC[C@@H]1OC(=O)/C=C/C=C/C=C/[C@@H]1O[C@@](C)(C(=O)O)O[C@H]1C (stereo partly drawn) | 4.57 µM |
| COC(=O)c1ccc2c(=O)n(CCCCCC(=O)NCCc3ccc(S(N)(=O)=O)cc3)c(=O)[nH]c2c1 | > 25 µM (inactive) |
| O=C(Nc1ccc(Cl)c(Cl)c1)c1cccc(N2CCCCS2(=O)=O)c1 | > 25 µM (inactive) |
| Cc1cc(Nc2ncc(Cl)cc2Cl)n(-c2ccccc2)n1 | > 25 µM (inactive) |
| Nc1cccc(C(=O)CC2(O)C(=O)N(Cc3ccc(Cl)cc3)c3ccccc32)c1 (stereo not drawn) | > 25 µM (inactive) |
| Cc1ccccc1NC(=O)Cn1c(=O)n(-c2ccc(CC(=O)NCCc3ccccc3)cc2)c(=O)c2sccc21 | > 25 µM (inactive) |
| CC1=C(O)C(=O)C=C2C1=CC=C1[C@@]2(C)CC[C@@]2(C)[C@@H]3C[C@](C)(C(=O)O)CC[C@]3(C)CC[C@]12C | > 25 µM (inactive) |
